Each structure is given as a SMILES string.

Series [1] has as its system patients who underwent refractive surgery. Nature of the series: double-masked randomized clinical trial on night sight problems (halos, coma, glare) after refractive surgery. It counts as in vivo, human. How it is done:
A double-masked randomized clinical trial with 14 patients (27 eyes) has been organized by dividing the patients in three different groups: 8 patients were treated with placebo, 10 patients were treated with a first ophthalmic composition (I dilution), 9 patients were treated with a second ophthalmic composition (II dilution).
The patients belonging to this trial had to go through an ophthalmic examination: of the haze grading and of natural and corrected visual acuity, intra ocular pressure (IOP), pupillometry in mesopic conditions with split lamp and examination of corneal maps. The anamnestic data about the surgical operation were collected: the refractive surgery technique employed (PRK/LASIK), the date of the surgical operation, data about the corrected optical zone and the ametropy kind. The night sight problems had to be stable for at least three months after the surgical operation for the patient to be included in the trial.
The patients had to identify the image they perceived before and during the pharmacological treatment, with follow-up examinations fixed every 15-30 days. At the end of the clinical trial the patients had to provide information about the efficacy and duration (in terms of hours) of the treatment, onset time of the effect, changes of the visual capabilities and side effects, if any.
The ophthalmic compositions were prepared according to the following procedure:
I dilution, 4 IU of aceclidine 2% were diluted in 5 mL of hyaluronic acid (0.200 g/100 mL)
II dilution, 8 IU of aceclidine 2% were diluted in 5 mL of hyaluronic acid (0.200 g/100 mL)
Placebo consisted in 5 mL of hyaluronic acid (0.200 g/100 mL).
The three ophthalmic compositions (I dilution, II dilution and placebo) were administered to the 14 patients belonging to the clinical trial in a blind way.

For another series, the system named is healthy people. The series is described as follows: pupillary diameter after instillation in healthy people. The format is in vivo, human. The conditions noted are these: ophthalmic composition with aceclidine in very low concentrations, for four to six hours (summary statement). The method, then: The two ophthalmic compositions, I and II dilution, were administered firstly to a group of healthy people: one eye was treated with the I dilution composition (0.016%), the second eye with the II dilution composition (0.032%), measuring the pupillary diameter in the same light conditions at 30 minutes, 1-2-3-4-5-6 hours after the first instillation.

[2] abbreviates: patients treated with refractive surgery, aceclidine in very low concentrations (summary statement).

For `CC(=O)OC1CN2CCC1CC2` (stereo not drawn) [aceclidine, 3-acetoxyquinuclidine], in series [1] (aceclidine 0.016% to 0.040% of total weight), the “side effects in the effective concentration range” value is given as “no relevant side effects are detectable”. In addition, the “duration of action after instillation” value in series [1] (aceclidine 0.016% to 0.040%, instilled 10-20 minutes before need (summary statement)) was 4 to 6 h. In series [1] (setting [2]), the “duration of light, transitory conjunctival hyperemia” value is 5 to 10 min; the “headache or sight reduction” value is on record as “no headache or sight reduction”; the “improvement of halos, coma and glare” value is recorded as “statistically significant improvement”. Moreover, the pupil diameter reduction with healthy people is on record as 2-3 mm.

The record behind these values is patent publication US20040106644A1, “Composition for treatment of night sight problems(halos, comas and glare) after refractive surgery, intra ocular lens implant after lensectomy or intraocular implant in phakic patients comprising aceclidine employed at low concentrations” (priority 2001, published 2004).
